Reference: patent publication US11976083B2, “Inhibitors of peptidylarginine deiminases” (Gilead Sciences, Inc., priority 2020, dated 2024)
pIC50: −log10 of the molar value.

The compounds below were run against T1, human PAD4 (Homo sapiens, UniProt Q9UM07) (assay: In vitro PAD4 BAEE biochemical assay). Details: BAEE substrate 3 mM, 5 nM PAD4, 2 mM calcium chloride; geometric mean of multiple experiments.
T1 construct: human PAD4 (NM_012387), A2-P663, was PCR amplified; His-SUMO (N, cleaved yes); made in house; host or cells: E. coli BL21(DE3)
T1 sequence (Q9UM07 2-663): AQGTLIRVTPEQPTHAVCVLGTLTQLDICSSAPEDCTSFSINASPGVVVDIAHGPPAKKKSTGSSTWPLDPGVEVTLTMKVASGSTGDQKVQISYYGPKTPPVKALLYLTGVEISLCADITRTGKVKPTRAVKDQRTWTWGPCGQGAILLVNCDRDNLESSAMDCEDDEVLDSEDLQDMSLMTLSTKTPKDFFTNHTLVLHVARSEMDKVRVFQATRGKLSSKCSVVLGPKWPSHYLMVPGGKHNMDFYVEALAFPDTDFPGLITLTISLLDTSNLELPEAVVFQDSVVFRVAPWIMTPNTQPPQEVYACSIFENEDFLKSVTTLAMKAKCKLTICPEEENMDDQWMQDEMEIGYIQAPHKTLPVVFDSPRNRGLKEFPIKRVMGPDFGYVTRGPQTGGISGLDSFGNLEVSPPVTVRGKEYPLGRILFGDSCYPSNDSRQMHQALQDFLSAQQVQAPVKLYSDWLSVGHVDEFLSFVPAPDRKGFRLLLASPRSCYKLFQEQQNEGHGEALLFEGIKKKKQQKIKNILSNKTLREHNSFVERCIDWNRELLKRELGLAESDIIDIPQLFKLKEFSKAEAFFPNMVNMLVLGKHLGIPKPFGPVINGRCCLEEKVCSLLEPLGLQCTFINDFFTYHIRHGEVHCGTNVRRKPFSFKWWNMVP
How it was run: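 Fluorescence read-out (ex 405/em 535 nm) of isoindole formed from ammonia, o-phthalaldehyde and DTT after EDTA stop. Reaction: 5 nM PAD4, 2 mM CaCl2, 3 mM BAEE, 2 h, 25 °C, after 30 min enzyme–compound preincubation. Normalised to BB-Cl-Amidine (50 µM) and DMSO controls.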

Question: How did the pIC50 turn out when `COc1cc(C(=O)N2CC[C@@H](OC)[C@@H](N)C2)cc2nc(-c3cc4ccc5cc4n3CCCCCCC(C)(C)C(=O)N[C@@H]5C)n(C)c12` [Example 173, (11~{R})-17-[5-[(3~{S},4~{R})-3-amino-4-methoxy-piperidine-1-carbonyl]-7-methoxy-1-methyl-benzimidazol-2-yl]-8,8,11-trimethyl-1,10-diazatricyclo[10.5.2.0^{15,18}]nonadeca-12(19),13,15(18),16-tetraen-9-one] was run?
Answer: 6.96

Question: How did the pIC50 turn out when `COc1cc(C(=O)N2CC[C@@H](OC)[C@@H](N)C2)cc2nc(-c3cc4ccc5nc4n3CCCCC[C@@H]3C[C@H]3C(=O)N[C@@H]5C)n(C)c12` [Example 174, (2~{R},5~{R},7~{R})-14-[5-[(3~{S),4~{R})-3-amino-4-methoxy-piperidine-1-carbonyl]-7-methoxy-1-methyl-benzimidazol-2-yl]-2-methyl-3,13,19-triazatetracyclo[11.5.2.0^{5,7}.0^{16,20}] icosa-1(19),14,16(20),17-tetraen-4-one] was run?
Answer: 7.10

Question: `COc1cc(C(=O)N2CC[C@@H](OC)[C@@H](N)C2)cc2nc(-c3cc4ccc5nc4n3CCCCC[C@H]3C[C@]3(C)C(=O)N[C@@H]5C)n(C)c12` [Example 175] was tested. Which pIC50 did it give?
Answer: 6.64

Question: With `C[C@H]1NC(=O)C(C)(C)CCCCCCn2c(-c3nc4cc(C(=O)N[C@@H]5CCCNC5)c(F)cc4n3C3CC3)cc3ccc1nc32` [Example 176, 1-cyclopropyl-6-fluoro-~{N}-[(3~{R})-3-piperidyl]-2-[(11~{R})-8,8,11-trimethyl-9-oxo-1,10,19-triazatricyclo[10.5.2.0^{15,18}]nonadeca-12(19),13,15(18),16-tetraen-17-yl]benzimidazole-5-carboxamide] as the compound, how does the pIC50 read?
Answer: 6.71

Question: With `COc1cc(C(=O)NC2CNC2)cc2nc(-c3cc4ccc5nc4n3CCCCCCC(C)(C)C(=O)N[C@@H]5C)n(C)c12` [Example 177, ~{N}-(azetidin-3-yl)-7-methoxy-1-methyl-2-[(11~{R})-8,8,11-trimethyl-9-oxo-1,10,19-triazatricyclo[10.5.2.0^{15,18}]nonadeca-12(19),13,15(18),16-tetraen-17-yl]benzimidazole-5-carboxamide] as the compound, how does the pIC50 read?
Answer: 4.52

Question: With `COc1cc(C(=O)N[C@H]2CNCC[C@@H]2F)cc2nc(-c3cc4ccc5nc4n3CCCCCCC(C)(C)C(=O)N[C@@H]5C)n(C)c12` [Example 178, ~{N}-[(3~{S},4~{S})-4-fluoro-3-piperidyl]-7-methoxy-1-methyl-2-[(11~{R})-8,8,11-trimethyl-9-oxo-1,10-diazatricyclo[10.5.2.0^{15,18}]nonadeca-12(19),13,15(18),16-tetraen-17-yl]benzimidazole-5-carboxamide] as the compound, how does the pIC50 read?
Answer: 7.30

Question: With `C[C@H]1NC(=O)C(C)(C)CCCCCCn2c(-c3nc4cc(C(=O)N[C@H]5CNCC[C@@H]5F)c(F)cc4n3C3CC3)cc3ccc1nc32` [Example 179, 1-cyclopropyl-6-fluoro-~{N}-[(3~{S},4~{S})-4-fluoro-3-piperidyl]-2-[(11~{R})-8,8,11-trimethyl-9-oxo-1,10,19-triazatricyclo[10.5.2.0^{15,18}]nonadeca-12(19),13,15(18),16-tetraen-17-yl]benzimidazole-5-carboxamide] as the compound, how does the pIC50 read?
Answer: 7.21

Question: With `COc1cc(C(=O)N[C@H]2CNCC[C@@H]2F)cc2nc(-c3cc4ccc5nc4n3CCCCCc3c(cnn3C)C(=O)N[C@@H]5C)n(C)c12` [Example 180, 2-[(2~{R})-2,8-dimethyl-4-oxo-3,7,8,15,21-pentazatetracyclo[13.5.2.0^{5,9}.0^{18,22}]docosa-1(21),5(9),6,16,18(22),19-hexaen-16-yl]-~{N}-[(3~{S},4~{S})-4-fluoro-3-piperidyl]-7-methoxy-1-methyl-benzimidazole-5-carboxamide] as the compound, how does the pIC50 read?
Answer: 7.12

Question: `COc1cc(C(=O)N[C@H]2CNCC[C@@H]2F)cc2nc(-c3cc4ccc5nc4n3CCCCCc3cnn(C)c3C(=O)N[C@@H]5C)n(C)c12` [Example 181, 2-[(2~{R})-2,6-dimethyl-4-oxo-3,6,7,15,21-pentazatetracyclo[13.5.2.0^{5,9}.0^{18,22}]docosa-1(21),5(9),7,16,18(22),19-hexaen-16-yl]-~{N}-[(3~{S},4~{S})-4-fluoro-3-piperidyl]-7-methoxy-1-methyl-benzimidazole-5-carboxamide] was tested. Which pIC50 did it give?
Answer: 6.77

Question: `C[C@H]1NC(=O)[C@@H]2C[C@H]2CCCCCn2c(-c3nc4cc(C(=O)N[C@H]5CNCC[C@@H]5F)c(F)cc4n3C3CC3)cc3ccc1nc32` [Example 182, 1-cyclopropyl-6-fluoro-~{N}-[(3~{S},4~{S})-4-fluoro-3-piperidyl]-2-[(2~{R},5~{R},7~{R})-2-methyl-4-oxo-3,13,19-triazatetracyclo[11.5.2.0^{5,7}.0^{16,20}]icosa-1(19),14,16(20),17-tetraen-14-yl]benzimidazole-5-carboxamide] was tested. Which pIC50 did it give?
Answer: 7.51

Question: `COc1cc(C(=O)N[C@H]2CNCC[C@@H]2F)cc2nc(-c3cc4ccc5nc4n3CCCCCc3nnn(C)c3C(=O)N[C@@H]5C)n(C)c12` [Example 183, 2-[(2~{R})-2,6-dimethyl-4-oxo-3,6,7,8,15,21-hexazatetracyclo[13.5.2.0^{5,9}.0^{18,22}]docosa-1(21),5(9),7,16,18(22),19-hexaen-16-yl]-~{N}-[(3~{S},4~{S})-4-fluoro-3-piperidyl]-7-methoxy-1-methyl-benzimidazole-5-carboxamide] was tested. Which pIC50 did it give?
Answer: 6.92

Question: With `COc1cc(C(=O)N[C@H]2CNCC[C@@H]2F)cc2nc(-c3cc4ccc5nc4n3CCCCC[C@@H]3C[C@H]3C(=O)N[C@@H]5C)n(C)c12` [Example 184, ~{N}-[(3~{S},4~{S})-4-fluoro-3-piperidyl]-7-methoxy-1-methyl-2-[(2~{R},5~{R},7~{R})-2-methyl-4-oxo-3,13,19-triazatetracyclo[11.5.2.0^{5,7}.0^{16,20}]icosa-1(19),14,16(20),17-tetraen-14-yl]benzimidazole-5-carboxamide] as the compound, how does the pIC50 read?
Answer: 7.38

Question: `COc1cc(C(=O)N[C@H]2CNCC[C@@H]2F)cc2nc(-c3cc4ccc5nc4n3CCCCCc3nn(C)nc3C(=O)N[C@@H]5C)n(C)c12` [Example 185, 2-[(2~{R})-2,7-dimethyl-4-oxo-3,6,7,8,15,21-hexazatetracyclo[13.5.2.0^{5,9}.0^{18,22}]docosa-1(21),5,8,16,18(22),19-hexaen-16-yl]-~{N}-[(3~{S),4~{S})-4-fluoro-3-piperidyl]-7-methoxy-1-methyl-benzimidazole-5-carboxamide] was tested. Which pIC50 did it give?
Answer: 7.18

Question: How did the pIC50 turn out when `COc1cc(C(=O)N[C@H]2CNCC[C@@H]2F)cc2nc(-c3cc4ccc5nc4n3CC(F)(F)CCCc3ccccc3C(=O)N[C@@H]5C)n(C)c12` [Example 186, 2-[(2~{R})-14,14-difluoro-2-methyl-4-oxo-3,16,22-triazatetracyclo[14.5.2.0^{5,10}.0^{19,23}]tricosa-1(22),5(10),6,8,17,19(23),20-heptaen-17-yl]-~{N}-[(3~{S},4~{S})-4-fluoro-3-piperidyl]-7-methoxy-1-methyl-benzimidazole-5-carboxamide] was run?
Answer: 6.86

Question: `COc1cc(C(=O)N[C@H]2CNCC[C@@H]2F)cc2nc(-c3cc4ccc5nc4n3CCCCC[C@H]3C[C@]3(C)C(=O)N[C@@H]5C)n(C)c12` [Example 187, 2-[(2~{R},5~{S},7~{S})-2,5-dimethyl-4-oxo-3,13,19-triazatetracyclo[11.5.2.0^{5,7}.0^{16,20}]icosa-1(19),14,16(20),17-tetraen-14-yl]-~ {N}-[(3~{S},4~{S})-4-fluoro-3-piperidyl]-7-methoxy-1-methyl-benzimidazole-5-carboxamide] was tested. Which pIC50 did it give?
Answer: 6.96

Question: `C[C@H]1NC(=O)[C@@H]2C[C@H]2CCCCCn2c(-c3nc4cc(C(=O)N[C@H]5CNCC[C@@H]5F)cnc4n3C)cc3ccc1nc32` [Example 188, ˜{N}-[(3˜{S},4˜{S})-4-fluoro-3-piperidyl]-3-methyl-2-[(2˜{R},5˜{R},7˜{R})-2-methyl-4-oxo-3,13,19-triazatetracyclo[11.5.2.0^{5,7}.0^{16,20}]icosa-1(19),14,16(20),17-tetraen-14-yl]imidazo[4,5-b]pyridine-6-carboxamide] was tested. Which pIC50 did it give?
Answer: 7.31

Question: `C[C@H]1NC(=O)[C@@H]2C[C@H]2CCCC(F)(F)Cn2c(-c3nc4cc(C(=O)N[C@H]5CNCC[C@@H]5F)c(F)c(F)c4n3C3CC3)cc3ccc1nc32` [Example 189, 1-cyclopropyl-2-[(2~{R},5~{R},7~{R})-11,11-difluoro-2-methyl-4-oxo-3,13,19-triazatetracyclo[11.5.2.0^{5,7}.0^{16,20}]icosa-1(19),14,16(20),17-tetraen-14-yl]-6,7-difluoro-~{N}-[(3~{S},4~{S})-4-fluoro-3-piperidyl]benzimidazole-5-carboxamide] was tested. Which pIC50 did it give?
Answer: 7.48

Question: `COc1cc(C(=O)N2CC[C@H]3OCCN[C@H]3C2)cc2nc(-c3cc4ccc5cc4n3CCCCCCC(C)(C)C(=O)N[C@@H]5C)n(C)c12` [Example 190, (11~{R})-17-[5-[(4~{a}~{S},8~{a}~{R})-2,3,4,4~{a},5,7,8,8~{a}-octahydropyrido[4,3-b][1,4]oxazine-6-carbonyl]-7-methoxy-1-methyl-benzimidazol-2-yl]-8,8,11-trimethyl-1,10-diazatricyclo[10.5.2.0^{15,18}]nonadeca-12(19),13,15(18),16-tetraen-9-one] was tested. Which pIC50 did it give?
Answer: 7.03

Question: `COc1cc(C(=O)N[C@H]2CNCCC2(F)F)cc2nc(-c3cc4ccc5cc4n3CCCCCCC(C)(C)C(=O)N[C@@H]5C)n(C)c12` [Example 191, ~{N}-[(3~{S})-4,4-difluoro-3-piperidyl]-7-methoxy-1-methyl-2-[(11~{R})-8,8,11-trimethyl-9-oxo-1,10-diazatricyclo[10.5.2.0^{15,18}]nonadeca-12(19),13,15(18),16-tetraen-17-yl]benzimidazole-5-carboxamide] was tested. Which pIC50 did it give?
Answer: 6.85
